Some test systems named below: OVCAR-3 ovarian; CAKI-1 renal; SK-OV-3 ovarian; 786-0 renal; SF-539 CNS; HCT-116 colon; MOLT-4 leukemia; SR leukemia; U251 CNS; HOP-92 NSCLC; COLO 205 colon; NCI-H460 lung; MALME-3M melanoma; MDA-N; OVCAR-4 ovarian; A498 renal.
Common to all, as to test: DTP human tumour cell line panel, 48 h

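How tested: cells in 96-well plates exposed to compound for 48 hours at five concentrations. TGI denotes the concentration required for complete inhibition of growth.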 Bounds are passed on as bounds.

What is called TGI is the concentration giving total growth inhibition. The low end stands for more potent growth arrest, the high end for less potent growth arrest. Consider `Nc1ccc2c(SCc3ccc([N+](=O)[O-])cc3)c3ccccc3nc2c1`, for which the TGI in the experiment with OVCAR-3 ovarian stood at 30.2 µM; in the experiment with CAKI-1 renal, 28.7 µM; with SK-OV-3 ovarian it was 42.7 µM; in the experiment with 786-0 renal it was 20.1 µM; in the experiment with SF-539 CNS it was 30.8 µM; in the experiment with HCT-116 colon, 22.7 µM. Moreover, the TGI in the experiment on MOLT-4 leukemia was 6.73 µM; in the experiment on SR leukemia, 5.05 µM; in the experiment with U251 CNS it was 38.1 µM; in the experiment on HOP-92 NSCLC, 36.4 µM; in the experiment on COLO 205 colon, 6.36 µM; in the experiment on NCI-H460 lung, 47.2 µM. Besides, the TGI in the experiment with MALME-3M melanoma was found to be 26.8 µM; in the experiment with MDA-N, 31.1 µM; in the experiment on OVCAR-4 ovarian it was 30.6 µM; in the experiment on A498 renal it was 49.2 µM.
Regarding `CCCN(CCCc1ccccc1)CCc1ccc2[nH]c(=S)[nH]c2c1`, the TGI with OVCAR-3 ovarian is > 100 µM; with CAKI-1 renal it was > 100 µM; in the experiment on SK-OV-3 ovarian, > 100 µM; with 786-0 renal, 25.4 µM; in the experiment with HCT-116 colon it was > 100 µM; in the experiment on MOLT-4 leukemia, 54 µM. The TGI was 25.1 µM with SR leukemia; > 100 µM in the experiment on U251 CNS; 42.6 µM with HOP-92 NSCLC; 42.6 µM with COLO 205 colon; 26.1 µM with NCI-H460 lung; 25.5 µM in the experiment on MALME-3M melanoma. The results for the TGI in the experiment on MDA-N, in the experiment with OVCAR-4 ovarian and in the experiment on A498 renal were 41.7 µM, > 100 µM and > 100 µM, respectively.
For `O=S(=O)(O)C(=Nc1cccc(Cc2ccccc2)c1)Nc1cccc(Cc2ccccc2)c1`, the TGI in the experiment with CAKI-1 renal was > 100 µM; in the experiment with SK-OV-3 ovarian, 36.9 µM; in the experiment on 786-0 renal, 29 µM; in the experiment on SF-539 CNS it was 34.7 µM; in the experiment with HCT-116 colon, 28.2 µM; with MOLT-4 leukemia, 83.4 µM. Also, the TGI in the experiment with SR leukemia came to 69.7 µM; with U251 CNS, 37.8 µM; with HOP-92 NSCLC, 28.6 µM; with COLO 205 colon it was 34.3 µM; in the experiment on MALME-3M melanoma it was 32.6 µM; in the experiment with MDA-N it was 47.2 µM. Besides, the TGI is 41 µM with OVCAR-4 ovarian and 45.8 µM in the experiment with A498 renal.
With `CN1CCN(c2ncc3c(n2)sc2c(=O)n(-c4ccccc4)cnc23)CC1`, the TGI in the experiment with OVCAR-3 ovarian, in the experiment on CAKI-1 renal, in the experiment on SK-OV-3 ovarian, with 786-0 renal, with HCT-116 colon and in the experiment with MOLT-4 leukemia was > 100 µM throughout. Further, the TGI with SR leukemia, in the experiment on U251 CNS, with HOP-92 NSCLC, in the experiment on COLO 205 colon, in the experiment with NCI-H460 lung and with MALME-3M melanoma was > 100 µM each time. Besides, the TGI with MDA-N, with OVCAR-4 ovarian and with A498 renal was > 100 µM throughout.
Take `COc1ccc(-n2cnc3c2NC(C)(C)N=C3C(N)=O)c(OC)c1`: the TGI in the experiment on OVCAR-3 ovarian, in the experiment on CAKI-1 renal, in the experiment on SK-OV-3 ovarian, with 786-0 renal, in the experiment on SF-539 CNS and in the experiment with HCT-116 colon was > 100 µM each time. Also, the TGI with SR leukemia, in the experiment on U251 CNS, in the experiment with HOP-92 NSCLC, with COLO 205 colon, with NCI-H460 lung and with MALME-3M melanoma was > 100 µM in each case. In addition, the TGI in the experiment on MDA-N, in the experiment with OVCAR-4 ovarian and in the experiment on A498 renal was > 100 µM each time.
Consider `NC(=O)c1cc2ccc(O)cc2oc1=Nc1ccccc1`, for which the TGI in the experiment with OVCAR-3 ovarian is > 100 µM; with CAKI-1 renal, > 100 µM; with SK-OV-3 ovarian, > 100 µM; with 786-0 renal, > 100 µM; in the experiment on HCT-116 colon, > 100 µM; in the experiment on MOLT-4 leukemia, 88.8 µM. Also, the TGI in the experiment with SR leukemia is 53.9 µM; with U251 CNS it was > 100 µM; with HOP-92 NSCLC, > 100 µM; with COLO 205 colon it was 44 µM; with NCI-H460 lung it was > 100 µM; in the experiment with MALME-3M melanoma, > 100 µM. Further, the results for the TGI with MDA-N, in the experiment with OVCAR-4 ovarian and in the experiment with A498 renal were > 100 µM, > 100 µM and 68.1 µM, respectively.
Regarding `COc1ccc(CC(=O)N2CCC3(C)CC(=O)CC=C23)cc1OC` (centres undefined), the TGI in the experiment on OVCAR-3 ovarian, in the experiment with CAKI-1 renal, with SK-OV-3 ovarian, in the experiment with 786-0 renal, in the experiment with SF-539 CNS and in the experiment on HCT-116 colon was > 100 µM each time. The TGI in the experiment on MOLT-4 leukemia, in the experiment on SR leukemia, with U251 CNS, in the experiment with HOP-92 NSCLC, in the experiment on COLO 205 colon and in the experiment on MALME-3M melanoma was > 100 µM in each case. The TGI in the experiment on MDA-N, in the experiment with OVCAR-4 ovarian and in the experiment with A498 renal was > 100 µM throughout.
Regarding `O=C(CCc1ccc(O)c(O)c1)NCCc1cc(O)cc(O)c1`, the TGI in the experiment on OVCAR-3 ovarian, in the experiment on CAKI-1 renal, in the experiment on SK-OV-3 ovarian, with 786-0 renal, in the experiment with SF-539 CNS and in the experiment with HCT-116 colon was > 100 µM throughout. Further, the TGI with MOLT-4 leukemia, with SR leukemia, with U251 CNS, in the experiment on HOP-92 NSCLC, in the experiment with COLO 205 colon and with NCI-H460 lung was > 100 µM in each case. In addition, the TGI in the experiment with MDA-N was 48.1 µM; with A498 renal, > 100 µM.
As to `CN(C)CCCNc1ccc([N+](=O)[O-])c2nc3ccccc3c(N)c12`, the TGI was 5.05 µM in the experiment on OVCAR-3 ovarian; > 10 µM in the experiment on CAKI-1 renal; 0.987 µM in the experiment on SK-OV-3 ovarian; 1.8 µM with 786-0 renal; 1.82 µM with SF-539 CNS; 1.33 µM in the experiment with HCT-116 colon. In addition, the TGI in the experiment on MOLT-4 leukemia is 3.42 µM; in the experiment with SR leukemia it was > 10 µM; in the experiment on U251 CNS, 2.12 µM; in the experiment with HOP-92 NSCLC it was 5.08 µM; in the experiment on NCI-H460 lung it was 1.38 µM; in the experiment with MALME-3M melanoma it was > 10 µM. The TGI with MDA-N stood at 2.18 µM; in the experiment with OVCAR-4 ovarian, 0.595 µM; in the experiment with A498 renal it was 6.92 µM.
